Assay results as given in USRE39198E1, “Heteroarylpiperidines, pyrrolidines and piperazines and their use as antipsychotics and analgesics” (Aventis Pharmaceuticals Inc., priority 1989, dated 2006).

System: CK-1 male mice
Test: Climbing mouse assay (apomorphine-induced climbing)
Format: in vivo
Details: Mus musculus; ip; apomorphine 1.5 mg/kg sc challenge; climbing score vs control group set to 100%; linear regression
Protocol: Antipsychotic activity is determined in the climbing mice assay by a method similar to those described by P. Protais, et al., Psychopharmacol., 50:1 (1976) and B. Costall, Eur. J. Pharmacol., 50:39 (1978).
Subject […] male mice (23-27 grams) are group-housed under standard laboratory conditions. The mice are individually placed in wire mesh stick cages (4″×10″) and are allowed one hour for adaption and exploration of the new environment. Then apomorphine is injected subcutaneously at 1.5 mg/kg a dose causing climbing in all subjects for 30 minutes.
For evaluation of climbing, 3 readings are taken at 10. 20, and 30 minutes after apomorphine administration according to the following scale:
Mice consistently climbing before the injection of apomorphine are discarded.
With full-developed apomorphine climbing, the animals are hanging on to the cage walls, rather motionless, over long periods of time. By contrast, climbs due to mere motor stimulation usually only last a few seconds.
The climbing scores are individually totaled (maximal score: 6 per mouse over 3readings) and the total score of the control group (vehicle intraperitoneally-apomorphine subcutaneously) is set to 100%.

Row | Compound | ED50 [mg/kg]
1 | COc1cc(C(C)O)ccc1OCCCCN1CCC(c2noc3ccccc23)CC1 (stereo not shown) [1-[4-[4-[4-(1,2-Benzisoxazol-3-yl)-1-piperidinyl]butoxy]-3-methoxyphenyl]ethanol] | 1.6

Same assay, conditions: apomorphine 1.5 mg/kg sc challenge, climbing score vs control group set to 100%, linear regression

Row | Compound | CLIMBING MOUSE ASSAY (ED50 mg/kg, ip) [mg/kg]
2 | COc1cc(C(C)=O)ccc1OCCCN1CCC(c2noc3cc(F)ccc23)CC1 [1-[4-[3-[4-(6-Fluoro-1,2-benzisoxazol-3-yl)-1-piperadinyl]propoxy]-3-methoxyphenyl]ethanone] | 0.095
3 | CC(=O)c1ccc(CCCCN2CCC(c3noc4cc(F)ccc34)CC2)cc1 [1-[4-(4′-Acetophenyl)butyl]-4-(6-fluoro-1,2-benzisoxazol-3-yl)piperidine] | 0.34
4 | 6-Fluoro-3-[1-[3-[(isoquinol-5-yl)oxy]propyl]-4-piperidinyl]-1,2-benzisoxazole sesquifumarate | 0.172
5 | COc1cc(C(C)=O)ccc1OCCCCN1CCC(c2noc3cc(F)ccc23)CC1 [1-[4-[4-[4-(6-Fluoro-1,2-benzisoxazol-3-yl)-1-piperidinyl)butoxy]-3-methoxyohenylethanone] | 0.68
6 | Fc1ccc2c(C3CCN(CCC4COc5ccccc5O4)CC3)noc2c1 (stereo not shown) [2-[4-(6-Fluoro-1,2-benzisoxazol-3-yl)-1-piperidinyl]ethyl]-1,4-benzodioxan] | 0.29
7 | COc1cc(C(C)=O)ccc1OCCCN1CCC(c2noc3ccccc23)CC1 [1-[4-[3-[4-(1,2-Benzisoxazol-3-yl)-1-piperadinyl]propoxyl]-3-methoxyphenyl]ethanone] | 0.67

System: mice
Test: Phenyl p-quinone writhing assay in mice
Format: in vivo
Details: dose effecting approximately 50% inhibition of writhing in mice
From the text: Some of the compounds of the present invention are also useful as analgetics due so their ability to alleviate pain in mammals. […] Exptl. Biol. Med., 95:729 (1937). Thus, for instance the subcutaneous dose effecting an approximately 50% inhibition of writhing (ED50) in mice produced in this assay is as shown in Table 2.

Row | Compound | INHIBITION OF PHENYLQUINONE INDUCED WRITHING ED50 mg/kg, sc [mg/kg]
8 | COc1cc(C(C)=O)ccc1OCCCN1CCC(c2noc3cc(F)ccc23)CC1 [1-[4-[3-[4-(6-Fluoro-1,2-benzisoxazol-3-yl)-1-piperadinyl]propoxy]-3-methoxyphenyl]ethanone] | 0.03
9 | COc1cc(C(C)=O)ccc1OCCCN1CCC(c2noc3ccccc23)CC1 [1-[4-[3-[4-(1,2-Benzisoxazol-3-yl)-1-piperadinyl]propoxyl]-3-methoxyphenyl]ethanone] | 0.17

System: not given
Test: not given
Details: not given

Row | Compound | melting point [°C]
10 | COc1cc(C(C)O)ccc1OCCCCN1CCC(c2noc3ccccc23)CC1 (stereo not shown) [1-[4-[4-[4-(1,2-Benzisoxazol-3-yl)-1-piperidinyl]butoxy]-3-methoxyphenyl]ethanol] | 99 to 101
11 | Fc1ccc2c(C3CCN(CCN4CCOCC4)CC3)noc2c1 [Example 116, N-[2-[4-(6-Fluoro-1,2-benzisoxazol-3-yl)-1-piperidinyl]ethyl]morpholine] | 131 to 132
12 | CC(=O)OC[C@H](C)CN1CCC(c2noc3cc(F)ccc23)CC1.O=C(O)/C=C/C(=O)O | 118 to 120
13 | COc1cc(C(C)=O)ccc1OCCCCN1CCC(c2n[nH]c3ccccc23)CC1 [Example 20, 1-[4-[4-[4(1H-indazol-3-yl)-1-piperidinyl]butoxy]-3-methoxyphenyl]ethanone] | 133 to 135
14 | Cl.O=C1[C@H]2CCCC[C@H]2C(=O)N1CCCN1CCC(c2noc3cc(F)ccc23)CC1 | 242 to 245
15 | Fc1ccc2c(C3CCN(CC4COc5ccccc5O4)CC3)noc2c1 (stereo not shown) [Example 91, 2-[4-(6-Fluoro-1,2-benzisoxazol-3-yl)-1-piperidinyl]methyl-1,4-benzodioxan] | 86 to 87
16 | CCCCCCCCCC(=O)NCCN1CCC(c2noc3cc(F)ccc23)CC1.O=C(O)/C=C/C(=O)O | 108 to 110
17 | COc1cc(C(C)=O)ccc1OCCN1CCN(c2n[nH]c3cc(Cl)ccc23)CC1 [Example 41, 1-[4-[2-[4-(6-Chloro-1H-indazol-3-yl)-1-piperazinyl]ethoxy]-3-methoxyphenyl]ethanone] | 154 to 156

Second part, the compound after the results:

Row | melting point [°C] | Compound
18 | 152 to 154 | CC(=O)c1ccc2c(c1)oc(=O)n2CCCN1CCC(c2noc3cc(F)ccc23)CC1 [Example 94, N-[3-[4-(6-Fluoro-1,2-benzisoxazol-3-yl)-1-piperidinyl]propyl]-6-acetyl-2-benzoxazolinone]
19 | 150 to 152 | CC(=O)c1ccc(NCCCN2CCC(c3noc4cc(F)ccc34)CC2)c(O)c1 [Example 111, 1-[4-[3-[4-(6-Fluoro-1,2-benzisoxazol-3-yl)-1-piperidinyl]propylamino]-3-hydroxyphenyl]ethanone]
20 | 221 to 223 | COc1cc(C(C)=O)ccc1OCCCN1CCC(c2nsc3cc(F)ccc23)CC1.Cl [1-[4-[3-[4-(6-Fluoro-1,2-benzisothiazol-3-yl)-1-piperidinyl]propoxy]-3-methoxyphenyl]ethanone hydrochloride]
21 | 157 to 158 | COCCN1CCC(c2noc3cc(F)ccc23)CC1.O=C(O)/C=C/C(=O)O
22 | 124 to 125 | CC(=O)c1ccc(OCc2ccccc2)c(OC/C=C/CN2CCC(c3noc4cc(F)ccc34)CC2)c1 [Example 85, (E)-1-[3-[[4-[4-(6-Fluoro-1,2-benzisoxazol-3-yl)-1-piperidinyl]-2-butenyl]oxy]-4-benzyloxyphenyl]ethanone]
23 | 156 to 158 | CC(C)(O)CCN1CCC(c2noc3cc(F)ccc23)CC1.O=C(O)/C=C/C(=O)O
24 | 132 to 133 | CC(=O)NCCN1CCC(c2noc3cc(F)ccc23)CC1.O=C(O)/C=C/C(=O)O
25 | 118 to 120 | CC(=O)Nc1ccccc1OCCCN1CCC(c2noc3cc(F)ccc23)CC1 [Example 61, N-[2-[3-[4-(6-fluoro-1,2-benzoisoxazol-3-yl)-1-piperidinyl]propoxy]phenyl]acetamide]
26 | 138 to 140 | Cc1ccc2c(c1)C(=O)N(CCN1CCC(c3noc4cc(F)ccc34)CC1)C2=O [Example 157, N-[2-[4-(6-Fluoro-1,2-benzisoxazol-3-yl)-1-piperidinyl]ethyl]-4-methylphthalimide]
27 | 243 to 245 | Fc1ccc2c(C3CCN(CCCCBr)CC3)noc2c1 [Example 114, 4-[4-(6-Fluoro-1,2-benzisoxazol-3-yl)-1-piperidinyl]butyl bromide]
28 | 109 to 111 | COc1ccc(NC(C)=O)cc1OCCCN1CCC(c2nsc3cc(F)ccc23)CC1 [Example 74, N-[3-[3-[4-(6-Fluoro-1,2-benzisothiazol-3-yl)-1-piperidinyl]propoxy]-4-methoxyphenyl]acetamide]
